According to US20160369234A1, “CONVERSION OF SOMATIC CELLS TO INDUCED REPROGRAMMED NEURAL STEM CELLS (IRNSCS)” (Hoffmann-La Roche Inc., priority 2010, published 2016):

How the values were obtained:
Format in all cases: cell-based
Human fibroblasts IMR90 [1] = experiment: Generation of GFP+ irNSC neurospheres, Fasudil versus Balanol-like-324 compound in induction medium (FIG. 11)
Protocol: FIG. 11: Comparison of Fasudil versus Balanol-like-324 compound stimulation to generate irNSC neurospheres. Human fibroblasts IMR90 were trypsinized and infected in a small volume with: Sox2, Bmi1, nestin GFP reporter using the induction medium (NeuroCult® NS-A Proliferation Kit (Human, StemCells Technologies) with FGF, EGF BDNF 20 ng/ml; Heparin 2 μg/ml; Polybrene 4 μg/ml) supplemented with Fasudil 10 μM (hatched graph) or Balanol-like-324 compound 2 μM (black graph). Fibroblasts were plated in a normal tissue culture plate at a concentration of 10000-30000 cells/cm^2. Day 1: Media change with fresh induction medium. Day 4: The GFP+ neurospheres bigger than 50 μm were counted.
Induction Medium: N2B27 (N2B27 is a 1:1 mixture of DMEM/F12 (Gibco, Paisley, UK) supplemented with N2 and B27 (both from Gibco) supplemented with human EGF (Peprotech) 30 ng/ml, human FGF2 30 ng/ml (Peprotech), human BDNF (Roche) 20 ng/ml and Fasudil (Calbiochem) 10 μM or Balanol-like-324 compound (N-{(3R,4R)-4-[4-(2-Fluoro-6-hydroxy-3-methoxy-benzoyl)-benzoylamino]-azepan-3-yl}-4-hydroxy-3,5-dimethyl-benzamide) 2 μM.
1. Generation of the irNSCs: • 200.000 IMR90 human fibroblasts infected with the lentiviruses for different genes combination (multiplicity of infection (M.O.I.) used for each single lentivirus 30) and the reporter nestin GFP lentivirus (M.O.I. used 10) in an eppendorf with 300 μl induction medium with polybrene (hexadimethrine bromide, Sigma) 4 μg/ml. • Incubate at room temperature for 15 min. • Plate the 300 μl in 1.7 ml induction medium in a well of a 6-well-plate tissue treated • Day 1, renew the 2 ml of induction medium/each well • Day 3, harvest of the neurospheres collecting carefully the 2 ml with the floating spheres • Expand the neurospheres2. […]

[2] = tested on: irNSC neurospheres from human fibroblasts IMR90; experiment: Expansion of irNSC neurospheres with or without Fasudil in expansion medium (FIG. 9); conditions: expansion medium with Fasudil vs without; Day 15
Protocol: FIG. 9: Generation of a batch of irNSC neurospheres for expansion and characterization. 3.6 million human fibroblasts IMR90 were trypsinized and infected in a small volume with: Sox2, Bmi1, nestin GFP reporter using the induction medium (N2B27 with FGF, EGF 30 ng/ml BDNF 20 ng/ml) supplemented with Fasudil 10 μM and Polybrene 4 μg/ml. From Day 4 to Day 8: The GFP+ neurospheres bigger than 50 μm were harvested and further used for expansion. Half of the neurospheres have been expanded using the expansion medium (N2B27 with FGF, EGF 30 ng/ml BDNF 20 ng/ml) with Fasudil and the other half without Fasudil.
The irNSCs have a typical NSC morphology and were Sox2 and Nestin positive (FIG. 10).
Expansion Medium: N2B27 supplemented with human EGF (Peprotech) 30 ng/ml, human FGF2 30 ng/ml (Peprotech), human BDNF (Roche) 20 ng/ml, or
1. […]

human fibroblasts = experiment: Reprogramming of human fibroblasts to irNSCs with or without Fasudil in induction medium, neurosphere count (FIG. 6); conditions: Fasudil added to induction medium, nestin reporter lentivirus; day 3
Excerpt: The method can be illustrated by reference to FIG. 1 herein, which depicts a method according to the invention being used for converting human fibroblasts to neural stem cells (NSCs). In this method human fibroblast were trypsinized at day 0, counted and their viability determined. Between 1.0×10^5-3.0×10^5 trypsinized fibroblasts were then resuspended in the induction medium and the combination of genes delivered as lentiviruses. At the induction medium polybrene (hexadimethrine bromide) was added to increase the efficiency of the lentiviruses transduction. The infection was performed for 15 minutes in an eppendorf tube. In combination with the genes, a human Nestin GFP reporter was used. Nestin is a well known marker expressed specifically in NSCs. In the nestin reporter the fluorescent protein GFP is under expression of the human nestin promoter (FIG. 2), therefore it allows an easy screen for induced reprogrammed neural stem cells (irNSCs) GFP+.
The infected cells were plated in tissue culture plates using a concentration of 10000-30000 cells/cm^2 in the appropriate volume of induction medium. At day 1 the total induction medium was renewed. It was possible to identify some irNSC GFP+ (FIG. 3) with a clear change in morphology compared to the human fibroblasts. The irNSCs GFP+ acquired a bipolar and elongated morphology with a more condensed cytoplasm, typical of NSCs. […]

Human fibroblasts IMR90 [3] = experiment: Pre-treatment of human fibroblasts with Valproic Acid before infection, yield of GFP+ irNSC neurospheres (FIG. 12); conditions: VPA 1 mM pre-treatment 48 hours vs without; Day 7; n=3
Protocol: FIG. 12: Pre-treatment of human fibroblasts with Valproic Acid (VPA) improves the yield of GFP+ irNSC neurospheres. Human fibroblasts IMR90 were pre-treated for 48 hours with or without the HDAC inhibitor Valproic Acid (2-propyl-pentanoic acid, monosodium salt) (1 mM) prior infection with: Sox2, Bmi1, nestin GFP reporter. Induction medium (NeuroCult® NS-A Proliferation Kit (Human, StemCells Technologies) with FGF, EGF BDNF 20 ng/ml; Heparin 2 μg/ml; Balanol-like-324 2 μM). Day 7: The Neurospheres bigger than 50 μm were counted (Panel A) and the average number of GFP+ irNSC per neurosphere is reported (Panel B). Representative pictures for the irNSCs neuropheres generated with the VPA pre-treatment (Panel C).
To increase the yield of irNSCs, human fibroblasts were pretreated with or without the HDAC inhibitor Valproic Acid (VPA, 2-propyl-pentanoic acid, monosodium salt). Towards this end, the human fibroblasts were incubated in DMEM/F12 supplemented with FBS 10% and L-glutamine supplemented with 1 mM VPA prior to infection (FIG. 12).

SMILES: COc1ccc(O)c(C(=O)c2ccc(C(=O)N[C@@H]3CCCNC[C@H]3NC(=O)c3cc(C)c(O)c(C)c3)cc2)c1F [Balanol-like-324 compound, N-{(3R,4R)-4-[4-(2-Fluoro-6-hydroxy-3-methoxy-benzoyl)-benzoylamino]-azepan-3-yl}-4-hydroxy-3,5-dimethyl-benzamide]
- reproducibility of neurosphere generation versus Fasudil (Human fibroblasts IMR90 [1]; Balanol-like-324 2 μM vs Fasudil 10 μM, Day 4, STDEV, n=3): better reproducibility
- increase in efficiency of the neurospheres generation (GFP+ neurospheres bigger than 50 μm) versus Fasudil (Human fibroblasts IMR90 [1]; Balanol-like-324 2 μM vs Fasudil 10 μM, Sox2, Bmi1, nestin GFP reporter, Day 4, n=3): ~1.9 fold
- yield of GFP+ neurospheres (Human fibroblasts IMR90 [1]; FIG. 11, Rock kinase inhibitor in induction medium): increases the yield

SMILES: O=S(=O)(c1cccc2cnccc12)N1CCCNCC1 [Fasudil, 1-(5-Isoquinolinesulfonyl)homopiperazine]
- neurosphere morphology [2]: better morphology and clear and sharp borders
- generation of neurospheres (human fibroblasts): generation of neurospheres (around 50 μm)

SMILES: CCCC(CCC)C(=O)[O-].[Na+] [VPA, 2-propyl-pentanoic acid, monosodium salt]
- increase in number of GFP+ irNSCs per neurosphere (Human fibroblasts IMR90 [3]): 2.1 fold
- number of neurospheres bigger than 50 μm (Human fibroblasts IMR90 [3]): did not significantly affect
